Measured values from US20230338340A1, “Methods of Treating Cystic Fibrosis” (The Trustees of Dartmouth College, priority 2020, published 2023).

biological target: T1, Human-Dab2-DH (Homo sapiens, UniProt P98082); assay: Dab2 FP competition assay via HTS; assay type: binding; details: not given
T1 construct: fused on or other part: N-terminal 10xHis tag with a 3C protease site, cleaved off unless otherwise indicated
T1 sequence (P98082 33-178 limits assumed): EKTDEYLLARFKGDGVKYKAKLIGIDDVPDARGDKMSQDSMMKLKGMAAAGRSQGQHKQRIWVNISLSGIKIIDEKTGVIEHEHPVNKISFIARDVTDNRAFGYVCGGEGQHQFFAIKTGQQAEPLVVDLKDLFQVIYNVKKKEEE
Experimental: CALP and/or Dab2 inhibition assays were performed in biochemical “mix-and-measure” format in order to evaluate the effects on activation and inhibition of CALP and/or Dab2 by the compounds of the disclosure. Brief assay procedure is provided below. Unless otherwise specified, all of the compounds were obtained from commercial sources.
Dab-2 inhibitors were also identified by FP competition assays via HTS. Human-Dab2-DH, residues 31-191 (Uniprot: P98082), and trDab2-DH (residues 33-178) was subcloned into the pET16b vector via PCR utilizing the restriction enzyme sites of Xhol and BamHI. The construct was designed with a 3C protease cleavage site directly upstream and in-frame with the protein coding sequence. DNA was sequence verified. (0.1 mM) IPTG was used to induce protein expression in E. coli BL21(DE3)RIL cells, after reaching an O.D. of […]. […] Followed by 3C cleavage of the 10×His tag (unless otherwise indicated), and a second nickel affinity column to remove the 3C protease and excess tag. Dab2-DH was dialyzed into FP storage buffer (25 mM Tris pH 8.0, 150 mM NaCl, 0.1 mM TCEP, and 0.02% sodium azide). Fluorescent reporter peptides, TIVR*STA02 (TMR*-[…]) and TMR*STA03 (TMR*-[…]), were purchased commercially with the following sequence where TMR* denotes a N-terminal tetramethylrhodamine group coupled via an aminohexanoic acid linker. An unlabled positive control peptide STA02 ([…]) was also purchased commercially. Inhibitors of Dab2-DH were identified from a variety of sources with various protocols outlined below.
For screens conducted at the Novartis Institutes for BioMedical Research FAST Lab, single-dose HTS assays were performed with libraries comprising ˜52,000 compounds at 20 μM doses. Experiments were conducted as described for screens at the University of Pittsburgh Lab and Drug Discovery Institute, except that Dab2-DH, not trDab2-DH, was used as the protein source.
For screens conducted at the Broad Institute, compound transfers were done using a 384-well pin tool equipped with 100 nL hydrophobic surface coated pins. 100 nL of DMSO (negative control), STA02 (positive control), or library compounds were dispensed into 20 μL of protein (200 nM) and reporter (F*-STA02, 30 nM) mixture with 0.1 mg/ml mouse IgG and 0.5 mM Thesit. Final concentrations in the mixture were DMSO ([…]), STA02 (20 μM), and compounds (18 μM). Plates were incubated for 35-45 minutes before measuring polarization. Compounds were tested in duplicates on two separate plates. Positive and negative controls were included in each individual plate.
For experiments conducted at the University of Pittsburgh Lab and Drug Discovery Institute, single-dose HTS assays were performed with a library containing ˜220,000 compounds. On the day of screening, a master mix of equal parts trDab2-DH (900 nM) and TMP-STA03 (90 nM) was prepared. Compound plates containing assay ready 2 μL aliquots of a 1 mM stock solution in DMSO were thawed, reconstituted in FP buffer to a concentration of 30 μM in 3% DMSO, and five μL transferred to low volume assay plates using a Perkin Elmer MDT. Ten μL of master mix were added by a Microflo bulk liquid dispenser (Biotek, Winooski, VT) and processed as described in the general protocol above. Each plate contained 32 wells of positive (Dab2-DH+probe+DMSO) and negative (Dab2-DH+probe +10 μM STA03) controls. Plates were read at 1.5-h and 4-h on the Envision multilabel reader.

| SMILES | IC50 [µM] |
| --- | --- |
| COc1c(O)c2c(=O)cc(OC)c3c4c(OC)cc(=O)c5c(O)c(OC)c(CC(C)OC(=O)c6ccccc6)c(c(c1CC(C)OC(=O)Oc1ccc(O)cc1)c23)c54 (stereo not drawn) [Example 20, 1-(3,10-dihydroxy-12-(2-(((4-hydroxyphenoxy)carbonyl)oxy)propyl)-2,6,7,11-tetramethoxy-4,9-dioxo-4,9-dihydroperylen-1-yl)propan-2-yl benzoate] | 0.51 |
| CN(C)[C@@H]1C(=O)C(C(N)=O)=C(O)[C@@]2(O)C(=O)C3=C(O)c4c(O)cccc4[C@@](C)(O)[C@H]3[C@H](O)[C@@H]12 [Example 30, (4S,4aR,5S,5aR,6S,12aR)-4-(dimethylamino)-1,5,6,10,11,12a-hexahydroxy-6-methyl-3,12-dioxo-3,4,4a,5,5a,6,12,12a-octahydrotetracene-2-carboxamide] | 6.02 |

same assay, conditions: at Cmax; cells printed with %

| SMILES | Inhibitory activity Dab2 at Cmax [%] |
| --- | --- |
| CC1(C)Cc2ccccc2-c2n[nH]c(=S)n21 [Example 13, 5,5-dimethyl-5,6-dihydro-[1,2,4]triazolo[3,4-a]isoquinoline-3(2H)-thione] | ~−95 |

same assay, conditions: read-out: Inhibitory activity Dab2 IC50

| SMILES | IC50 [µM] |
| --- | --- |
| CC(C)c1cc2c(c(O)c1O)C13CCCC(C)(C)C1CC2OC3=O (stereo not drawn) [Example 16, 5,6-dihydroxy-7-isopropyl-1,1-dimethyl-1,3,4,9,10,10a-hexahydro-2H-9,4a-(epoxymethano)phenanthren-12-one] | 6.89 |
| O=C1C=C(O)c2c(O)cc(O)cc2C1=O [Example 17, 4,5,7-trihydroxynaphthalene-1,2-dione] | 8.29 |
| Cc1cc(O)c(O)c(Oc2cc(C)cc(O)c2O)c1 [Example 22, 6,6′-oxybis(4-methylbenzene-1,2-diol)] | 0.77 |
| CC1=C(O)C(=O)C=C2C1=CC=C1[C@@]2(C)CC[C@@]2(C)[C@@H]3C[C@](C)(C(=O)O)CC[C@]3(C)CC[C@]12C [Example 24, (2R,4aS,6aS,12bR,14aS,14bR)-10-hydroxy-2,4a,6a,9,12b,14a-hexamethyl-11-oxo-1,2,3,4,4a,5,6,6a,11,12b,13,14,14a,14b-tetradecahydropicene-2-carboxylic acid] | 0.66 |
| COC(=O)C1=COC(OC2OC(CO)C(O)C(O)C2O)C2C(CO)=CCC12O (stereo not drawn) [Example 28, methyl 4a-hydroxy-7-(hydroxymethyl)-1-((3,4,5-trihydroxy-6-(hydroxymethyl)tetrahydro-2H-pyran-2-yl)oxy)-1,4a,5,7a-tetrahydrocyclopenta[c]pyran-4-carboxylate] | 0.39 |
| CC(C)c1cc2c(c(O)c1O)[C@@]13CCCC(C)(C)[C@@H]1C[C@@H]2OC3=O [Example 31, (4aR,9S,10aS)-5,6-dihydroxy-7-isopropyl-1,1-dimethyl-1,3,4,9,10,10a-hexahydro-2H-9,4a-(epoxymethano)phenanthren-12-one] | 5.37 |
| O=C1c2c(O)c(Cl)cc3c2[C@@]2(Oc4ccc(O)c5c4[C@]3(O2)[C@@H]2O[C@@H]2C5=O)[C@@H]2O[C@H]12 [Example 34, (1aR,1bS,5aS,6aR,6bS,11aS)-3-chloro-4,10-dihydroxy-1a,5a,6a,11a-tetrahydro-5H,11H-1b,6b-epoxyoxireno[2′,3′:2,3]naphtho[1,8-bc]oxireno[2′,3′:2,3]naphtho[1,8-ef]oxepine-5,11-dione] | 2.99 |

Now from value to molecule:

| IC50 [µM] | SMILES |
| --- | --- |
| 9.41 | CC[N+](C)(CC)CCC[n+]1c(-c2ccccc2)c2cc(N)ccc2c2ccc(N)cc21 [Example 29, 3,8-diamino-5-(3-(diethyl(methyl)ammonio)propyl)-6-phenylphenanthridin-5-ium bromide] |
| 8.86 | CC(=O)C1=C(O)[C@@]2(O)C(=O)c3c(c(C)c4ccc(C)c(O)c4c3O)C[C@H]2[C@@H](N)C1=O [Example 18, (1R,4aR,12aS)-3-acetyl-1-amino-4,4a,6,7-tetrahydroxy-8,11-dimethyl-12,12a-dihydrotetracene-2,5(1H,4aH)-dione] |
| 8.02 | CC1OC2CC(=O)OC2C2=C1C(=O)c1c(O)cccc1C2=O (stereo not drawn) [Example 33, 7-hydroxy-5-methyl-3,3a,5,11b-tetrahydro-2H-benzo[g]furo[3,2-c]isochromene-2,6,11-trione] |
| 7.73 | COC1=CC(=O)C(O)=C/C1=C\C=C\c1ccccc1 [Example 19, (E)-2-hydroxy-5-methoxy-4-((E)-3-phenylallylidene)cyclohexa-2,5-dien-1-one] |
| 5.22 | C=C1C(=O)OC2C(=O)OC(CCCCCCCCCC)C12 (stereo not drawn) [Example 32, 4-decyl-3-methylenedihydrofuro[3,4-b]furan-2,6(3H,4H)-dione] |
| 3.85 | CC1CCCCCCCCCC(OC(=O)CCC(=O)O)C(=O)/C=C/C(=O)O1 (stereo not drawn) [Example 27, (E)-4-((16-methyl-2,5-dioxooxacyclohexadec-3-en-6-yl)oxy)-4-oxobutanoic acid] |
| 3.22 | O=C(/C=C/c1ccc(O)c(O)c1)OC(Cc1ccc(O)c(O)c1)C(=O)O (stereo not drawn) [Example 25, (E)-3-(3,4-dihydroxyphenyl)-2-((3-(3,4-dihydroxyphenyl)acryloyl)oxy)propanoic acid] |
| 1.17 | COc1c(O)cc(C(C)C(C)=O)c(O)c1OC (stereo not drawn) [Example 35, 3-(2,5-dihydroxy-3,4-dimethoxyphenyl)butan-2-one] |
| 0.94 | COc1ccc(C(=O)C(=O)Nc2ccccc2)c(O)c1 [Example 21, 2-(2-hydroxy-4-methoxyphenyl)-2-oxo-N-phenylacetamide] |
| 0.89 | Cc1cc(O)c(Oc2cc(C)cc(O)c2O)c(O)c1 [Example 23, 3-(2,6-dihydroxy-4-methylphenoxy)-5-methylbenzene-1,2-diol] |
| 0.69 | Cc1occ2c1C(=O)c1c(O)ccc(O)c1C2 [Example 26, 5,8-dihydroxy-3-methylnaphtho[2,3-c]furan-4(9H)-one] |
